Target: T1, PD-1/PD-L1 protein/protein interaction (recombinant human PD-L1 protein (19-238), recombinant human PD-1 protein (25-167)) (Homo sapiens, UniProt Q9NZQ7)
T1 construct: Recombinant human PD-L1 protein (19-238) with a His-tag at the C-terminus; purchased AcroBiosystems PD1-H5229 (PD-L1-His); PD1-H5257 (PD-1-Fc)
Assay: PD-1/PD-L1 Homogeneous Time-Resolved Fluorescence (HTRF) Binding Assay
Settings: 25° C., PBS buffer (pH 7.4), 40 minutes preincubation with inhibitors
Summary of the method: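 HTRF read-out (665/620 nm) after 60 min at 25 °C with 1 nM Eu anti-human IgG and 20 nM APC anti-His. Beforehand, inhibitors were preincubated 40 min with Fc-PD-1 (25-167, […] as listed) and His-PD-L1 (19-238, 10 nM) in PBS pH 7.4 with Tween-20, BSA, 1% DMSO; IC50 from log-concentration curve.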

T1 sequence (Q9NZQ7 19-238): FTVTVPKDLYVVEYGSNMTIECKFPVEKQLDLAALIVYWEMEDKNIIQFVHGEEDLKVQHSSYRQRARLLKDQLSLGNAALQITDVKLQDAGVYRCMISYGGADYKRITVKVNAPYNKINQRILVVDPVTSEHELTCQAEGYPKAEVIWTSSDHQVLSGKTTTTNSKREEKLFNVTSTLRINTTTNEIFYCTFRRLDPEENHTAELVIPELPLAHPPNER

Compound	IC50
Cc1c(Nc2nccc3cc(CN4CC[C@@H](O)C4)cnc23)cccc1-c1cccc(NC(=O)c2nc3c(n2C)CCN(C(C)CC(=O)O)C3)c1Cl (stereo partly drawn) [Example 54, 3-(2-(2-chloro-3′-(3-(((R)-3-hydroxypyrrolidin-1-yl)methyl)-1,7-naphthyridin-8-ylamino)-2′-methylbiphenyl-3-ylcarbamoyl)-1-methyl-6,7-dihydro-1H-imidazo[4,5-c]pyridin-5(4H)-yl)butanoic acid]	≤ 10 nM
Cc1c(-c2nc3c(s2)CNCC3)cccc1-c1cccc(Nc2nccc3cc(CNCCO)cnc23)c1Cl [Example 1, 2-(((8-((2-chloro-2′-methyl-3′-(4,5,6,7-tetrahydrothiazolo[5,4-c]pyridin-2-yl)-[1,1′-biphenyl]-3-yl)amino)-1,7-naphthyridin-3-yl)methyl)amino)ethan-1-ol]	≤ 10 nM
Cc1c(Nc2nccc3cc(CN4CC[C@@H](O)C4)cnc23)cccc1-c1cccc(Nc2ncnc3cc(CNC[C@H](C)O)cnc23)c1C [Example 27, (R)-1-((8-(3′-(7-(((S)-2-hydroxypropylamino)methyl)pyrido[3,2-d]pyrimidin-4-ylamino)-2,2′-dimethylbiphenyl-3-ylamino)-1,7-naphthyridin-3-yl)methyl)pyrrolidin-3-ol]	≤ 10 nM
Cc1c(Nc2nccc3cc(CN4CC[C@@H](O)C4)cnc23)cccc1-c1cccc(-c2nc3c(o2)CN(C(=O)CN2CCCC[C@H]2C(=O)O)C3)c1C [Example 42, (S)-1-(2-(2-(3′-((3-(((R)-3-hydroxypyrrolidin-1-yl)methyl)-1,7-naphthyridin-8-yl)amino)-2,2′-dimethyl-[1,1′-biphenyl]-3-yl)-4,6-dihydro-5H-pyrrolo[3,4-d]oxazol-5-yl)-2-oxoethyl)piperidine-2-carboxylic acid]	≤ 10 nM
Cc1c(Nc2nccc3cc(CN4CC[C@H](O)C4)cnc23)cccc1-c1cccc(Nc2nccc3cc(CN4CC[C@@H](O)C4)cnc23)c1Cl [Example 74, (S)-1-((8-((2′-chloro-3′-((3-(((R)-3-hydroxypyrrolidin-1-yl)methyl)-1,7-naphthyridin-8-yl)amino)-2-methyl-[1,1′-biphenyl]-3-yl)amino)-1,7-naphthyridin-3-yl)methyl)pyrrolidin-3-ol]	≤ 10 nM
Cc1c(Nc2nccc3cc(CNCCO)cnc23)cccc1-c1cccc(Nc2nccc3cc(CN4CC[C@@H](O)C4)cnc23)c1C [Example 21, (R)-1-((8-(3′-(3-((2-hydroxyethylamino)methyl)-1,7-naphthyridin-8-ylamino)-2,2′-dimethylbiphenyl-3-ylamino)-1,7-naphthyridin-3-yl)methyl)pyrrolidin-3-ol]	≤ 10 nM
Cc1c(Nc2ncnc3cc(CN4CC[C@@](C)(C(=O)O)C4)cnc23)cccc1-c1cccc(NC(=O)c2nc3c(n2C)CCN(C)C3)c1Cl [Example 67, (R)-1-((4-(2′-chloro-3′-(1,5-dimethyl-4,5,6,7-tetrahydro-1H-imidazo[4,5-c]pyridine-2-carboxamido)-2-methylbiphenyl-3-ylamino)pyrido[3,2-d]pyrimidin-7-yl)methyl)-3-methylpyrrolidine-3-carboxylic acid]	≤ 10 nM
Cc1c(Nc2nccc3cc(CN4CC[C@@H](O)C4)cnc23)cccc1-c1cccc(Nc2ncnc3cc(CNCCO)cnc23)c1C [Example 24, (R)-1-((8-(3′-(7-((2-hydroxyethylamino)methyl)pyrido[3,2-d]pyrimidin-4-ylamino)-2,2′-dimethylbiphenyl-3-ylamino)-1,7-naphthyridin-3-yl)methyl)pyrrolidin-3-ol]	≤ 10 nM
Cc1c(NC(=O)c2cc(CN3CC[C@@H](O)C3)cn(C)c2=O)cccc1-c1cccc(Nc2nccc3cc(CN4CC[C@@H](C(=O)O)C4)cnc23)c1C [Example 28, (R)-1-((8-(3′-(5-(((R)-3-hydroxypyrrolidin-1-yl)methyl)-1-methyl-2-oxo-1,2-dihydropyridine-3-carboxamido)-2,2′-dimethylbiphenyl-3-ylamino)-1,7-naphthyridin-3-yl)methyl)pyrrolidine-3-carboxylic acid]	≤ 10 nM
Cc1c(Nc2nccc3cc(CNCCO)cnc23)cccc1-c1cccc(NC(=O)c2ccc(CNC3(C(=O)O)CCC3)cn2)c1F [Example 2, 1-(((6-(2-fluoro-3′-(3-((2-hydroxyethylamino)methyl)-1,7-naphthyridin-8-ylamino)-2′-methylbiphenyl-3-ylcarbamoyl)pyridin-3-yl)methyl)amino)cyclobutanecarboxylic acid]	≤ 10 nM
Cc1c(Nc2nccc3cc(CN4CC[C@H](O)C4)cnc23)cccc1-c1cccc(NC(=O)c2nc3c(n2C)CCN(C)C3)c1Cl [Example 32, (S)—N-(2-chloro-3′-(3-((3-hydroxypyrrolidin-1-yl)methyl)-1,7-naphthyridin-8-ylamino)-2′-methylbiphenyl-3-yl)-1,5-dimethyl-4,5,6,7-tetrahydro-1H-imidazo[4,5-c]pyridine-2-carboxamide]	≤ 10 nM
Cc1c(NC(=O)c2nc3c(n2C)CCN(C2CCC(C)(C(=O)O)CC2)C3)cccc1-c1cccc(Nc2nccc3cc(CN4CC[C@@H](O)C4)cnc23)c1C (single isomer, unassigned) [Example 62-peak1]	≤ 10 nM
Cn1cc(CN2CC[C@@H](O)C2)cc(C(=O)Nc2cccc(-c3cccc(Nc4nccc5cc(CN6CC(C(=O)O)C6)cnc45)c3Cl)c2Cl)c1=O [Example 16, (R)-1-((8-(2,2′-dichloro-3′-(5-((3-hydroxypyrrolidin-1-yl)methyl)-1-methyl-2-oxo-1,2-dihydropyridine-3-carboxamido)biphenyl-3-ylamino)-1,7-naphthyridin-3-yl)methyl)azetidine-3-carboxylic acid]	≤ 10 nM
Cc1c(Nc2nccc3cc(CN4CC[C@@H](O)C4)cnc23)cccc1-c1cccc(Nc2ncnc3cc(CN4CC[C@@H](O)C4)cnc23)c1C [Example 23, (R)-1-((4-(3′-(3-(((R)-3-hydroxypyrrolidin-1-yl)methyl)-1,7-naphthyridin-8-ylamino)-2,2′-dimethylbiphenyl-3-ylamino)pyrido[3,2-d]pyrimidin-7-yl)methyl)pyrrolidin-3-ol]	≤ 10 nM
Cc1c(Nc2nccc3cc(CN4CC[C@@H](O)C4)cnc23)cccc1-c1cccc(NC(=O)c2nc3c(n2C)CCN(CC[C@H]2CC[C@H](C(=O)O)CC2)C3)c1Cl (single isomer, unassigned) [Example 52]	≤ 10 nM

Continued, values first:

IC50	Compound
≤ 10 nM	Cc1c(Nc2nccc3cc(CN4CC[C@@H](O)C4)cnc23)cccc1-c1cccc(Nc2nccc3cc(CNCCC(=O)O)cnc23)c1Cl [Example 81, (R)-3-(((8-((2-chloro-3′-((3-((3-hydroxypyrrolidin-1-yl)methyl)-1,7-naphthyridin-8-yl)amino)-2′-methyl-[1,1′-biphenyl]-3-yl)amino)-1,7-naphthyridin-3-yl)methyl)amino)propanoic acid]
≤ 10 nM	Cc1c(Nc2nccc3cc(CN4CC[C@@H](C(=O)O)C4)cnc23)cccc1-c1cccc(-c2nc3c(s2)CN(C(=O)CN(C)C)C3)c1C [Example 85, (R)-1-((8-((3′-(5-(dimethylglycyl)-5,6-dihydro-4H-pyrrolo[3,4-d]thiazol-2-yl)-2,2′-dimethyl-[1,1′-biphenyl]-3-yl)amino)-1,7-naphthyridin-3-yl)methyl)pyrrolidine-3-carboxylic acid]
≤ 10 nM	Cc1c(-c2nc3c(s2)CN(C(=O)CN2CC[C@@H](O)C2)C3)cccc1-c1cccc(Nc2nccc3cc(CN4CC[C@@H](C(=O)O)C4)cnc23)c1Cl [Example 95, (R)-1-((8-((2-chloro-3′-(5-(2-((R)-3-hydroxypyrrolidin-1-yl)acetyl)-5,6-dihydro-4H-pyrrolo[3,4-d]thiazol-2-yl)-2′-methyl-[1,1′-biphenyl]-3-yl)amino)-1,7-naphthyridin-3-yl)methyl)pyrrolidine-3-carboxylic acid]
≤ 10 nM	Cc1c(Nc2nccc3cc(CN4CC[C@@H](O)C4)cnc23)cccc1-c1cccc(Nc2nccc3cc(CN4CC(C(=O)O)C4)cnc23)c1Cl [Example 80, (R)-1-((8-((2-chloro-3′-((3-((3-hydroxypyrrolidin-1-yl)methyl)-1,7-naphthyridin-8-yl)amino)-2′-methyl-[1,1′-biphenyl]-3-yl)amino)-1,7-naphthyridin-3-yl)methyl)azetidine-3-carboxylic acid]
≤ 10 nM	Cc1c(-c2nc3c(s2)CN(C(=O)CN2CC[C@H](O)C2)C3)cccc1-c1cccc(Nc2nccc3cc(CN4CC[C@@H](C(=O)O)C4)cnc23)c1Cl [Example 97, (R)-1-((8-((2-chloro-3′-(5-(2-((S)-3-hydroxypyrrolidin-1-yl)acetyl)-5,6-dihydro-4H-pyrrolo[3,4-d]thiazol-2-yl)-2′-methyl-[1,1′-biphenyl]-3-yl)amino)-1,7-naphthyridin-3-yl)methyl)pyrrolidine-3-carboxylic acid]
10 to 100 nM	CCN(C)CC(=O)N1Cc2nc(-c3cccc(-c4cccc(Nc5nccc6cc(CN7CC[C@H](CC(=O)O)C7)cnc56)c4Cl)c3C)sc2C1 [Example 93, (R)-2-(1-((8-(2-chloro-3′-(5-(2-(ethyl(methyl)amino)acetyl)-5,6-dihydro-4H-pyrrolo[3,4-d]thiazol-2-yl)-2′-methylbiphenyl-3-ylamino)-1,7-naphthyridin-3-yl)methyl)pyrrolidin-3-yl)acetic acid]
≤ 10 nM	OCCNCc1cnc2c(Nc3cccc(-c4cccc(Nc5nccc6cc(CN7CC[C@@H](O)C7)cnc56)c4Cl)c3Cl)nccc2c1 [Example 77, (R)-1-((8-((2,2′-dichloro-3′-((3-(((2-hydroxyethyl)amino)methyl)-1,7-naphthyridin-8-yl)amino)-[1,1′-biphenyl]-3-yl)amino)-1,7-naphthyridin-3-yl)methyl)pyrrolidin-3-ol]

Source: patent US12466822B2, “Heterocyclic compounds as immunomodulators” (Incyte Corporation, priority 2016, dated 2025)
